Test results from patent US20250195521A1 (Revolution Medicines, Inc., priority 2020, published 2025).

How the values were obtained:
[1] = biological target: KRAS G12V binding to BRAF RBD (Homo sapiens (Human), UniProt P01116+P62937, G12V); assay: Ras-Raf disruption/FRET/MOA assay, KRAS G12V; assay type: biochemical; conditions: read-out: KRAS G12V FRET IC50
From the text: (§1) Note—The following protocol describes a procedure for monitoring disruption of K-Ras G12C(GMP-PNP) binding to BRAF^RBD by a compound of the invention. This protocol may also be executed substituting other Ras proteins or nucleotides.
(§2) The purpose of this biochemical assay was to measure the ability of test compounds to facilitate ternary complex formation between a nucleotide-loaded K-Ras isoform and Cyclophilin A; the resulting ternary complex disrupts binding to a BRAF^RBD construct, inhibiting K-Ras signaling through a RAF effector. Data is reported as IC50 values.
(§3) Compound was present in plate wells as a 10-point 3-fold dilution series starting at a final concentration of 30 μM. After incubation at 25° C. for 3 hours, a mixture of Anti-His Eu—W1024 and anti-GST allophycocyanin was then added to assay sample wells at final concentrations of 10 nM and 50 nM, respectively, and the reaction incubated for an additional 1.5 hours. […] Compounds that facilitate disruption of a K-Ras: RAF complex were identified as those eliciting a decrease in the TR-FRET ratio relative to DMSO control wells.

[2] = biological target: K-Ras G12C(GMP-PNP) binding to BRAF RBD (Homo sapiens (Human), UniProt P01116+P62937, G12C); assay: Disruption of BRAF RBD interaction with K-Ras (FRET / MOA assay), K-Ras G12C; assay type: biochemical; conditions: read-out: KRAS G12C FRET IC50
Chain of K-Ras G12C(GMP-PNP) binding to BRAF RBD (P01116 other isoform, or with tags, fused parts or gaps G12C): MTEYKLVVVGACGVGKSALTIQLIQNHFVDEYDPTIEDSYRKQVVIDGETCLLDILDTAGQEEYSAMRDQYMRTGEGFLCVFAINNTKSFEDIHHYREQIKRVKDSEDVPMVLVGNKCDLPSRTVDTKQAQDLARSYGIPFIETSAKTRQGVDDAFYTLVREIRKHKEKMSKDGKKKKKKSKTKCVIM
Chain of K-Ras G12C(GMP-PNP) binding to BRAF RBD (P62937 whole entry): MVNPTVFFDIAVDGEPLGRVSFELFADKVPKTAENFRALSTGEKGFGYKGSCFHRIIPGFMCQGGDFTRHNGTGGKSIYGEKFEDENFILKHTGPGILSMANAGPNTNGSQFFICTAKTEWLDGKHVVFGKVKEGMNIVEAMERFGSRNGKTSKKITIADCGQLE
How it was run: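 Compounds promote ternary complex of nucleotide-loaded Ras (here K-Ras G12C·GMP-PNP; other Ras mutants substituted) with cyclophilin A, disrupting BRAF RBD binding. 10-point 3-fold series from 30 μM final, 3 h at 25 °C, then anti-His Eu (10 nM) and anti-GST APC (50 nM) for 1.5 h. TR-FRET ratio decrease versus DMSO gave IC50.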

[3] = biological target: KRAS G12S binding to BRAF RBD (Homo sapiens (Human), UniProt P01116+P62937, G12S); assay: Ras-Raf disruption/FRET/MOA assay, KRAS G12S; assay type: biochemical
Chain of KRAS G12S binding to BRAF RBD (P01116 other isoform, or with tags, fused parts or gaps G12S): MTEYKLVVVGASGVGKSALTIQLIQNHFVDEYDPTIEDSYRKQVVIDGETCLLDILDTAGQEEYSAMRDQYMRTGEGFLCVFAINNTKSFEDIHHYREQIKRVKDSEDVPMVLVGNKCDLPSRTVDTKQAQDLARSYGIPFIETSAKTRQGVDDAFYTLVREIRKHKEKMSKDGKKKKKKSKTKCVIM
Chain of KRAS G12S binding to BRAF RBD (P62937 whole entry): as the sequence (P62937 whole entry) above
From the text: as §1, §2, §3

[4] = system: K-Ras G12C (NCI-H358 cells); assay: Potency assay: pERK in NCI-H358 cells; assay type: cell-based, human; conditions: Homo sapiens; NCI-H358 cells, 4 hours; read-out: pERK EC50 (H358 KRAS G12C)
How it was run: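 Cells plated the day before were exposed for 4 h at 37° C, 5% CO2 to a 10-point, 3-fold DMSO dilution series (10 mM top stock), in duplicate. Phospho-ERK was read by AlphaLISA SureFire Ultra or by In-Cell Western with DRAQ5 DNA stain, and IC50 came from a 4-parameter sigmoidal fit.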

[5] = biological target: KRAS G13D binding to BRAF RBD (Homo sapiens (Human), UniProt P01116+P62937, G13D); assay: Ras-Raf disruption/FRET/MOA assay, KRAS G13D; assay type: biochemical
Chain of KRAS G13D binding to BRAF RBD (P01116 other isoform, or with tags, fused parts or gaps G13D): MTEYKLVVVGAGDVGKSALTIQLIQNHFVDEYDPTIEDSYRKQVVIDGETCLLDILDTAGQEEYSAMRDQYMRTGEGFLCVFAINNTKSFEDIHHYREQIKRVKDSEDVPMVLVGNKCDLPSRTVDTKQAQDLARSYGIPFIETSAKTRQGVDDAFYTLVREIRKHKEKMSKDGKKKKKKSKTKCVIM
Chain of KRAS G13D binding to BRAF RBD (P62937 whole entry): as the sequence (P62937 whole entry) above
How it was run: (§4)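 Cpd 10-pt 3-fold dilution, top 30 μM final; Ras/CypA/BRAF RBD mix 3 h, 25° C. Add anti-His Eu-W1024 10 nM + anti-GST APC 50 nM final, 1.5 h. Readout TR-FRET ratio decrease vs DMSO → IC50.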

[6] = biological target: NRAS G12C binding to BRAF RBD (Homo sapiens (Human), UniProt P01111+P62937, G12C); assay: Ras-Raf disruption/FRET/MOA assay, NRAS G12C; assay type: biochemical
Chain of NRAS G12C binding to BRAF RBD (P01111 whole entry G12C): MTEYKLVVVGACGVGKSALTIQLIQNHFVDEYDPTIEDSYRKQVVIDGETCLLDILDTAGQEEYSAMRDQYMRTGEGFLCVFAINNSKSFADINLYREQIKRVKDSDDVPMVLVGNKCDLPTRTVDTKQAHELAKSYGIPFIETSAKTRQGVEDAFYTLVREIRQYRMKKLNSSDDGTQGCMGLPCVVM
Chain of NRAS G12C binding to BRAF RBD (P62937 whole entry): as the sequence (P62937 whole entry) above
How it was run: as §4

NCI-H358 (K-Ras G12C) = assay: CellTiter-Glo cell viability assay, NCI-H358; assay type: cell-based, human; conditions: Homo sapiens, NCI-H358, 120 h, 5-day treatment; read-out: H358 Cell Viability assay data (K-Ras G12C, IC50)
How it was run: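 NCI-H358 cells were treated with test compounds dispensed directly into the assay wells and incubated until day 5. Viability was then read by CellTiter-Glo luminescence after a ~30 min room-temperature equilibration, normalized to the DMSO average (×100), and fit with a four-parameter logistic curve.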

[7] = biological target: KRAS WT binding to BRAF RBD (Homo sapiens (Human), UniProt P01116+P62937); assay: Ras-Raf disruption/FRET/MOA assay, KRAS WT; assay type: biochemical
Chain of KRAS WT binding to BRAF RBD (P01116 other isoform, or with tags, fused parts or gaps): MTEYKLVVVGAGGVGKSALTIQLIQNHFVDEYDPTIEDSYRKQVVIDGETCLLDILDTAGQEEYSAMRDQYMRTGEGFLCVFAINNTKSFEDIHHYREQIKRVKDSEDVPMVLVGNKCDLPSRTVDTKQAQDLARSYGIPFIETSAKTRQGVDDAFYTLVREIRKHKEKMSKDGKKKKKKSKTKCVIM
Chain of KRAS WT binding to BRAF RBD (P62937 whole entry, the tested form may be a part): as the sequence (P62937 whole entry) above
From the text: (§5) Disruption of B-Raf Ras-binding Domain (BRAF^RBD) Interaction with K-Ras by Compounds of the Invention (also called a FRET assay or an MOA assay)
as §1, §2
as §3, with “In assay buffer containing 25 mM HEPES pH 7.3, 0.002% Tween20, 0.1% BSA, 100 mM NaCl and 5 mM MgCl2, tagless Cyclophilin A, His6-K-Ras-GMPPNP, and GST-BRAF^RBD were combined in a 384-well assay plate at final concentrations of 25 μM, 12.5 nM and 50 nM, respectively. Compound was” for “Compound was”

[8] = system: NCI-H358 cells (K-Ras G12C); assay: CellTiter-Glo cell viability, NCI-H358; assay type: cell-based, human; conditions: Homo sapiens, NCI-H358, 120 h, K-Ras G12C, 5-day treatment; read-out: H358 Cell Viability IC50
How it was run: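 Compounds were dispensed directly onto seeded cells and incubated until day 5, then plates were equilibrated at room temperature for about 30 min before CellTiter-Glo luminescence readout. Signals were normalized as (sample/average DMSO)×100 and fitted with a four-parameter logistic model.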

[9] = biological target: KRAS Q61H binding to BRAF RBD (Homo sapiens (Human), UniProt P01116+P62937, Q61H); assay: Ras-Raf disruption/FRET/MOA assay, KRAS Q61H; assay type: biochemical
Chain of KRAS Q61H binding to BRAF RBD (P01116 other isoform, or with tags, fused parts or gaps Q61H): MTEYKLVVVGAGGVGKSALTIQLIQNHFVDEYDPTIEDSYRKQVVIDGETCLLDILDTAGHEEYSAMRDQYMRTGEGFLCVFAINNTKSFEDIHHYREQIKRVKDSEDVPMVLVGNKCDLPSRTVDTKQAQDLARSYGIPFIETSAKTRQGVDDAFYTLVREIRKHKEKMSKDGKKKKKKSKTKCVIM
Chain of KRAS Q61H binding to BRAF RBD (P62937 whole entry): as the sequence (P62937 whole entry) above
From the text: as §5, §1, §2
as §3, with “In assay buffer containing 25 mM HEPES pH 7.3, 0.002% Tween20, 0.1% BSA, 100 mM NaCl and 5 mM MgCl2, tagless Cyclophilin A, His6-K-Ras-GMPPNP, and GST-BRAF^RBD were combined in a 384-well assay plate at final concentrations of 25 μM, 12.5 nM and 50 nM, respectively. Compound was” for “Compound was”

[10] = biological target: NRAS WT binding to BRAF RBD (Homo sapiens (Human), UniProt P01111+P62937); assay: Ras-Raf disruption/FRET/MOA assay, NRAS WT; assay type: biochemical
Chain of NRAS WT binding to BRAF RBD (P01111 whole entry): as the sequence (P01111 whole entry G12C) above, with C12G counted along it
Chain of NRAS WT binding to BRAF RBD (P62937 whole entry): as the sequence (P62937 whole entry) above
From the text: as §5, §1, §2
as §3, with “In assay buffer containing 25 mM HEPES pH 7.3, 0.002% Tween20, 0.1% BSA, 100 mM NaCl and 5 mM MgCl2, tagless Cyclophilin A, His6-K-Ras-GMPPNP, and GST-BRAF^RBD were combined in a 384-well assay plate at final concentrations of 25 μM, 12.5 nM and 50 nM, respectively. Compound was” for “Compound was”

[11] = biological target: NRAS Q61K binding to BRAF RBD (Homo sapiens (Human), UniProt P01111+P62937, Q61K); assay: Ras-Raf disruption/FRET/MOA assay, NRAS Q61K; assay type: biochemical
Chain of NRAS Q61K binding to BRAF RBD (P01111 whole entry Q61K): as the sequence (P01111 whole entry G12C) above, with C12G, Q61K counted along it
Chain of NRAS Q61K binding to BRAF RBD (P62937 whole entry): as the sequence (P62937 whole entry) above
From the text: as §5, §1, §2
as §3, with “In assay buffer containing 25 mM HEPES pH 7.3, 0.002% Tween20, 0.1% BSA, 100 mM NaCl and 5 mM MgCl2, tagless Cyclophilin A, His6-K-Ras-GMPPNP, and GST-BRAF^RBD were combined in a 384-well assay plate at final concentrations of 25 μM, 12.5 nM and 50 nM, respectively. Compound was” for “Compound was”

[12] = biological target: NRAS Q61R binding to BRAF RBD (Homo sapiens (Human), UniProt P01111+P62937, Q61R); assay: Ras-Raf disruption/FRET/MOA assay, NRAS Q61R; assay type: biochemical
Chain of NRAS Q61R binding to BRAF RBD (P01111 whole entry Q61R): as the sequence (P01111 whole entry G12C) above, with C12G, Q61R counted along it
Chain of NRAS Q61R binding to BRAF RBD (P62937 whole entry): as the sequence (P62937 whole entry) above
From the text: as §5, §1, §2
as §3, with “In assay buffer containing 25 mM HEPES pH 7.3, 0.002% Tween20, 0.1% BSA, 100 mM NaCl and 5 mM MgCl2, tagless Cyclophilin A, His6-K-Ras-GMPPNP, and GST-BRAF^RBD were combined in a 384-well assay plate at final concentrations of 25 μM, 12.5 nM and 50 nM, respectively. Compound was” for “Compound was”

Chain of KRAS G12V binding to BRAF RBD (P01116 other isoform, or with tags, fused parts or gaps G12V): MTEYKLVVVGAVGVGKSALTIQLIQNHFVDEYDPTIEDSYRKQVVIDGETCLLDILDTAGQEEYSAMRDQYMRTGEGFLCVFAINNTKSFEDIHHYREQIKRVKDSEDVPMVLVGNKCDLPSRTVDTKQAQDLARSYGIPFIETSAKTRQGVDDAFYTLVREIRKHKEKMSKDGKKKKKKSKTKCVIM
Chain of KRAS G12V binding to BRAF RBD (P62937 whole entry): as the sequence (P62937 whole entry) above

Row | SMILES | IC50 [1] [nM] | IC50 [2] [nM] | IC50 [3] [nM] | EC50 [4] [nM] | IC50 [5] [nM] | IC50 [6] [nM] | IC50 (NCI-H358 (K-Ras G12C)) [nM] | IC50 [7] [nM] | IC50 [8] [nM] | IC50 [9] [nM] | IC50 [10] [nM] | IC50 [11] [nM] | IC50 [12] [nM]
1 | CCn1c(-c2cccnc2[C@H](C)OC)c2c3cc(ccc31)-c1cc(O)cc(c1)C[C@H](NC(=O)C(C1CC1)C1CC1)C(=O)N1CCC[C@H](N1)C(=O)OCC(C)(C)C2 [Compound A184] | 10 to 100 | < 10 | 10 to 100 | – | – | – | – | – | – | – | – | – | –
2 | CCn1c(-c2cccnc2[C@H](C)OC)c2c3cc(ccc31)-c1cc(O)cc(c1)C[C@H](NC(=O)[C@H](C(C)C)N(C)C(=O)[C@H]1CCC(C(=O)C#CCOC)C1)C(=O)N1CCC[C@H](N1)C(=O)OCC(C)(C)C2 (some centres unmarked) [Compound A266] | 10 to 100 | < 10 | 10 to 100 | < 5000 | 100 to 1000 | < 10 | < 10 | – | – | – | – | – | –
3 | CCn1c(-c2cccnc2[C@H](C)OC)c2c3cc(ccc31)-c1csc(n1)C[C@H](NC(=O)[C@H](C(C)C)N(C)C(=O)N1CCCC[C@@H](N(C)C)C1)C(=O)N1CCC[C@H](N1)C(=O)OCC(C)(C)C2 [Compound A492] | 10 to 100 | 10 to 100 | 10 to 100 | < 5000 | – | – | < 10 | 10 to 100 | 10 to 100 | – | – | – | –
4 | C=CC(=O)N1CC[C@]2(C1)OCN([C@H](C(=O)N[C@H]1Cc3cc(cc(C(F)(F)F)c3)-c3ccc4c(c3)c(c(-c3cccnc3[C@H](C)OC)n4CC)CC(C)(C)COC(=O)[C@@H]3CCCN(N3)C1=O)C(C)C)C2=O [Compound A557] | – | 100 to 1000 | – | < 5000 | 1000 to 10000 | 100 to 1000 | 100 to 1000 | – | – | 10 to 100 | 100 to 1000 | 1000 to 10000 | 1000 to 10000
5 | C=CC(=O)N(C)CCN1CCN(C(=O)N(C)[C@H](C(=O)N[C@H]2CN3CCC=C(C3)c3ccc4c(c3)c(c(-c3cccnc3[C@H](C)OC)n4CC)CC(C)(C)COC(=O)[C@@H]3CCCN(N3)C2=O)C(C)C)C[C@@H]1C [Compound A570] | – | 100 to 1000 | – | < 5000 | 1000 to 10000 | 100 to 1000 | 100 to 1000 | – | – | 100 to 1000 | 100 to 1000 | 100 to 1000 | 100 to 1000
6 | C=CC(=O)C1CC[C@H](C(=O)N(C)[C@H](C(=O)N[C@H]2Cc3cccc(c3)-c3ccc4c(c3)c(c(-c3cccnc3[C@H](C)OC)n4CC)CC(C)(C)COC(=O)[C@@H]3CCCN(N3)C2=O)C(C)(C)F)C1 (some centres unmarked) [Compound A693] | – | 100 to 1000 | – | < 5000 | 1000 to 10000 | 100 to 1000 | 100 to 1000 | – | – | 1000 to 10000 | 1000 to 10000 | 1000 to 10000 | 1000 to 10000
7 | CCn1c(-c2cccnc2[C@H](C)OC)c2c3cc(ccc31)-c1csc(n1)C[C@H](NC(=O)[C@H](C(C)C)N(C)C(=O)C1CCN(C(=O)/C=C/CN(C)C)C3(CC3)C1)C(=O)N1CCC[C@H](N1)C(=O)OCC(C)(C)C2 (some centres unmarked) [Compound A701] | – | 10 to 100 | – | < 5000 | 100 to 1000 | 10 to 100 | 10 to 100 | – | – | 10 to 100 | 100 to 1000 | 10 to 100 | 100 to 1000
8 | CCn1c(-c2cccnc2[C@H](C)OC)c2c3cc(ccc31)-c1csc(n1)C[C@H](NC(=O)[C@H](C(C)C)N(C)C(=O)C1CCN(C(=O)/C=C/CN(C)C)C[C@@H]1C)C(=O)N1CCC[C@H](N1)C(=O)OCC(C)(C)C2 (some centres unmarked) [Compound A709] | – | 10 to 100 | – | < 5000 | 100 to 1000 | 10 to 100 | 10 to 100 | – | – | 10 to 100 | 10 to 100 | 10 to 100 | 100 to 1000
9 | CCn1c(-c2cccnc2[C@H](C)OC)c2c3cc(ccc31)N1CCO[C@@H](C[C@H](NC(=O)[C@H](C(C)C)N(C)C(=O)[C@@]3(F)CCN(C(=O)C#CC(C)(C)N4CCC4)C3)C(=O)N3CCC[C@H](N3)C(=O)OCC(C)(C)C2)C1 [Compound A726] | – | < 10 | – | < 5000 | 1000 to 10000 | 10 to 100 | < 10 | – | – | 1000 to 10000 | 1000 to 10000 | > 10000 | > 10000
